Results as given in patent US11390591B2, “2,4,6-trisubstituted s-triazine compound, preparation method therefor, and use thereof” (Aluda Pharmaceuticals, Inc., priority 2016, dated 2022).
Read-outs that look alike come from different tables or passages of the source.

Columns and labels:
Assay type in all cases: cell-based
[1] = system: cell lines of human non-small cell lung cancer (H522); assay: In vitro antineoplastic activity, MTT experiment, H522; conditions: H522 cells, 48 hours, highest concentration tested 31.6 μM (>30: inhibition rate <50%)
Description: (§1) MTT, RPM1640 culture medium, fetal bovine serum, 96-well plate, CO2 thermostatic incubator, American BIO-RAD680 microplate reader, cell lines of human non-small cell lung cancer (H522), and cell lines of human brain glioma (U87) were all obtained commercially.
(§2) (1) Cell inoculation: A single cell suspension was prepared with culture media supplemented with 10% fetal bovine serum, plated into a 96-well plate with 5000 cells per well, each well having a volume of 100 μL, and cultured overnight.
(§3) (2) Preparation of compound solutions: a DMSO stock solution of a compound was diluted on a sterile bench with a culture medium into 5 concentrations to be tested, wherein a double dilution was employed between two adjacent concentrations.
(§4) (3) The compound solutions of various concentrations were added into the 96-well plate cultured overnight, with 100 μL added per well, triplicated wells for each concentration. Since the peripheral wells can have edge effect and are susceptible to contamination, no cells or compounds were added thereto; instead, 100 μL culture solution was added as a blank. Additionally, 100% wells were set to contain the cells and 100 μL culture media without any compound. The plates were incubated in a thermostatic incubator at 37° C. for 48 hours.
(§5) (4) Staining: 10 μL MTT solution (5 mg/mL, prepared with PBS) was added into the 96-well plate for staining. After incubation for 4 hours, centrifugation was performed at 2500 rpm for 10 minutes. Then, a multiple pipette was used to suck the culture solution out of the wells carefully without sucking out the cells while the pipette tip faced downward. 150 μL DMSO was added and shaken on a shaker for 5-10 minutes. Crystals were allowed to dissolve fully, and an OD value for each well was measured using the microplate reader at 570 nm. The inhibition rate was calculated as follows: Inhibition rate (%)=(average OD value of 100% wells−average OD value of compound wells)/(average OD value of 100% wells−average OD value of blank wells)×100%

human glioma U87 cells = assay: Tumor cell vacuolization (methuosis) scoring, U87; design: key to Vacuolation Score: 5 scores were given when obvious vacuolization occurred at 10 nM; 4 scores at 31.6 nM; 3 scores at 100 nM; 2 scores at 316 nM; 1 score at 1000 nM; 0 score was given if no vacuolation occurred at any concentration; conditions: U87 cells, 0.01-3.160 μM, 96 hours, microscope
Description: FIG. 2. Vacuolization of tumor cells. 100 microliter culture medium (RPMI1640, 2 mmol glutamine, 10% fetal bovine serum) containing 10^3 human colon adenocarcinoma cells (HCT15) or human brain glioma cells (U87) and a solvent DMSO control or 100 nM #40 compound (L16) was plated into a 96-well cell culture plate, and cell morphological image was taken under a phase contrast microscope after cultured at 5% CO2 and 37° C. for 96 hours.
Some cells gradually became round and eventually bursted. These changes are consistent with the features of cell death by methuosis (FIG. 2).
In order to compare the ability of different compounds to cause cell vacuolization, 100 μL culture media (RPMI1640, 2 mmol glutamine, 10% fetal bovine serum) comprising 10^3 human glioma U87 cells and final concentrations of 0.01, 0.0316, 0.1, 0.316, 1.0, 3.160 μM respectively of the compounds to be tested were inoculated into a 96-well culture plate. After cultured at 5% CO2 and 37° C. for 96 hours, cell morphology was observed under a high-magnification microscope, and the ability of the compounds to cause cell vacuolization was scored. 5 scores were given when obvious vacuolization occurred at 10 nM, 4 scores at 31.6 nM, 3 scores at 100 nM, 2 scores at 316 nM, 1 score at 1000 nM, and 0 score was given if no vacuolation occurred at any concentration.

[2] = system: cell lines of human brain glioma (U87); assay: In vitro antineoplastic activity, MTT experiment, U87
Description: as §1, §2, §3, §4, §5

[3] = U87 cells, MTT, 48 hours, highest concentration tested 31.6 μM, read-out: IC50(μM) U87
[4] = ability to inhibit cell proliferation, U87 (FIG. 3), unit inferred, read-out: IC50

| Compound | IC50 [1] [µM] | IC50 [2, 3] [µM] | IC50 [2, 4] [µM] | Vacuolation Score (human glioma U87 cells) |
| --- | --- | --- | --- | --- |
| O=C(Nc1ccc(Cl)cc1)Nc1ccc(Nc2nc(/C=C/c3ccc(Cl)cc3)nc(N3CCOCC3)n2)cc1 [L10, (E)-1-(4-chlorophenyl)-3-(4-(4-(morpholin-1-yl)-6-(4-chlorostyrenyl)-1,3,5-triazinyl-2-amino)phenyl)urea] | 2.18 ± 0.23 | 4.92 ± 0.16 | 4.92 | 3 (3 scores at 100 nM) |
| O=C(Nc1ccc(F)cc1)Nc1ccc(Nc2nc(/C=C/c3ccc(Cl)cc3)nc(N3CCOCC3)n2)cc1 [L11, (E)-1-(4-fluorophenyl)-3-(4-(4-(morpholin-1-yl)-6-(4-chlorostyrenyl)-1,3,5-triazinyl-2-amino)phenyl)urea] | 0.3 ± 0.03 | 2.5 ± 0.08 | 2.5 | 2 (2 scores at 316 nM) |
| O=C(Nc1ccc(Nc2nc(/C=C/c3ccc(Cl)cc3)nc(N3CCOCC3)n2)cc1)Nc1cccc(F)c1 [L12, (E)-1-(3-fluorophenyl)-3-(4-(4-(morpholin-1-yl)-6-(4-chlorostyrenyl)-1,3,5-triazinyl-2-amino)phenyl)urea] | 2.55 ± 0.12 | 4.41 ± 0.43 | 4.43 | 2 (2 scores at 316 nM) |
| CN1CCN(c2nc(/C=C/c3ccc(Cl)cc3)nc(Nc3ccc(NC(=O)Nc4ccc(Cl)cc4)cc3)n2)CC1 [L13, (E)-1-(4-chlorophenyl)-3-(4-(4-(4-methylpiperazin-1-yl)-6-(4-chlorostyrenyl)-1,3,5-triazinyl-2-amino)phenyl)urea] | 0.87 ± 0.08 | 2.04 ± 0.09 | 2.04 | 0 |
| CN1CCN(c2nc(/C=C/c3ccc(Cl)cc3)nc(Nc3ccc(NC(=O)Nc4ccc(F)cc4)cc3)n2)CC1 [L14, (E)-1-(4-fluorophenyl)-3-(4-(4-(4-methylpiperazin-1-yl)-6-(4-chlorostyrenyl)-1,3,5-triazinyl-2-amino)phenyl)urea] | 5.03 ± 0.49 | 2.48 ± 0.11 | 2.48 | 0 |
| CN1CCN(c2nc(/C=C/c3ccc(Cl)cc3)nc(Nc3ccc(NC(=O)Nc4cccc(F)c4)cc3)n2)CC1 [L15, (E)-1-(3-fluorophenyl)-3-(4-(4-(4-methylpiperazin-1-yl)-6-(4-chlorostyrenyl)-1,3,5-triazinyl-2-amino)phenyl)urea] | 4.26 ± 0.1 | 2.92 ± 0.21 | 2.91 | 0 |
| CN(C)c1nc(/C=C/c2cccc([N+](=O)[O-])c2)nc(Nc2ccc(NC(=O)Nc3ccc(Cl)cc3)cc2)n1 [L20, (E)-1-(4-chlorophenyl)-3-(4-(4-dimethylamino-6-(3-nitrostyrenyl)-1,3,5-triazinyl-2-amino)phenyl)urea] | 5.55 ± 0.4 | 5.12 ± 0.28 | 5.12 | 0 |
| O=C(Nc1ccc(Cl)cc1)Nc1ccc(Nc2nc(/C=C/c3cccc([N+](=O)[O-])c3)nc(N3CCCC3)n2)cc1 [L21, (E)-1-(4-chlorophenyl)-3-(4-(4-(pyrrolidin-1-yl)-6-(3-nitrostyrenyl)-1,3,5-triazinyl-2-amino)phenyl)urea] | 7.3 ± 0.75 | 4.47 ± 0.39 | 4.47 | 0 |
| CN(C)C(=O)c1ccc(NC(=O)Nc2ccc(Nc3nc(/C=C/c4ccccc4)nc(N4CCOCC4)n3)cc2)cc1 [L29, (E)-N,N-dimethyl-4-(3-(4-(4-(morpholin-1-yl)-6-styrenyl-1,3,5-triazinyl-2-amino)phenyl)urea)benzamide] | 6.51 ± 0.94 | 0.53 ± 0.02 | 0.75 | 3.5 |

The next lines start with results.

| IC50 [1] [µM] | IC50 [2, 3] [µM] | IC50 [2, 4] [µM] | Compound | Vacuolation Score (human glioma U87 cells) |
| --- | --- | --- | --- | --- |
| > 30 | 1.11 ± 0.1 | 1.19 | O=C(Nc1ccc(F)cc1)Nc1ccc(Nc2nc(/C=C/c3cccc([N+](=O)[O-])c3)nc(N3CCOCC3)n2)cc1 [L17, (E)-1-(4-fluorophenyl)-3-(4-(4-(morpholin-1-yl)-6-(3-nitrostyrenyl)-1,3,5-triazinyl-2-amino)phenyl)urea] | 3.5 |
| 2.31 ± 0.17 | 1.21 ± 0.07 | 1.21 | CN1CCN(c2nc(/C=C/c3cccc([N+](=O)[O-])c3)nc(Nc3ccc(NC(=O)Nc4ccc(Cl)cc4)cc3)n2)CC1 [L18, (E)-1-(4-chlorophenyl)-3-(4-(4-(4-methylpiperazin-1-yl)-6-(3-nitrostyrenyl)-1,3,5-triazinyl-2-amino)phenyl)urea] | 0 |
| 1.34 ± 0.22 | 1.62 ± 0.09 | 1.8 | CN1CCN(c2nc(/C=C/c3cccc([N+](=O)[O-])c3)nc(Nc3ccc(NC(=O)Nc4ccc(F)cc4)cc3)n2)CC1 [L19, (E)-1-(4-fluorophenyl)-3-(4-(4-(4-methylpiperazin-1-yl)-6-(3-nitrostyrenyl)-1,3,5-triazinyl-2-amino)phenyl)urea] | 0 |
| 1.27 ± 0.08 | 1.32 ± 0.22 | 1.33 | O=C(Nc1ccc(Cl)cc1)Nc1ccc(Nc2nc(/C=C/c3cccc([N+](=O)[O-])c3)nc(N3CC(O)C3)n2)cc1 [L22, (E)-1-(4-chlorophenyl)-3-(4-(4-(3-hydroxyazetidin-1-yl)-6-(3-nitrostyrenyl)-1,3,5-triazinyl-2-amino)phenyl)urea] | 0 |
| 1.44 ± 0.1 | 1 ± 0.06 | 1 | O=C(Nc1ccc(Cl)cc1)Nc1cccc(Nc2nc(/C=C/c3ccccc3)nc(N3CCOCC3)n2)c1 [L23, (E)-1-(4-chlorophenyl)-3-(3-(4-(morpholin-1-yl)-6-styrenyl-1,3,5-triazinyl-2-amino)phenyl)urea] | 0 |
| 4.03 ± 0.65 | 4.4 ± 0.88 | 4.4 | CN1CCN(c2nc(/C=C/c3ccccc3)nc(Nc3cccc(NC(=O)Nc4ccc(Cl)cc4)c3)n2)CC1 [L24, (E)-1-(4-chlorophenyl)-3-(3-(4-(4-methylpiperazin-1-yl)-6-styrenyl-1,3,5-triazinyl-2-amino)phenyl)urea] | 0 |
| 2.53 ± 0.28 | 2.2 ± 0.21 | 2.2 | O=C(Nc1ccc(Cl)cc1)Nc1cccc(Nc2nc(/C=C/c3cccc(Cl)c3)nc(N3CCOCC3)n2)c1 [L25, (E)-1-(4-chlorophenyl)-3-(3-(4-(morpholin-1-yl)-6-(3-chlorostyrenyl)-1,3,5-triazinyl-2-amino)phenyl)urea] | 0 |
| 5.48 ± 0.76 | 3.95 ± 0.67 | 3.94 | CN1CCN(c2nc(/C=C/c3cccc(Cl)c3)nc(Nc3cccc(NC(=O)Nc4ccc(Cl)cc4)c3)n2)CC1 [L26, (E)-1-(4-chlorophenyl)-3-(3-(4-(4-methylpiperazin-1-yl)-6-(3-chlorostyrenyl)-1,3,5-triazinyl-2-amino)phenyl)urea] | 0 |
| 2.21 ± 0.33 | 3.66 ± 0.55 | 3.66 | O=C(Nc1ccc(Cl)cc1)Nc1cccc(Nc2nc(/C=C/c3cccc([N+](=O)[O-])c3)nc(N3CCOCC3)n2)c1 [L27, (E)-1-(4-chlorophenyl)-3-(3-(4-(morpholin-1-yl)-6-(3-nitrostyrenyl)-1,3,5-triazinyl-2-amino)phenyl)urea] | 0 |
| 1.53 ± 0.22 | 1.49 ± 0.22 | 1.5 | CN1CCN(c2nc(/C=C/c3cccc([N+](=O)[O-])c3)nc(Nc3cccc(NC(=O)Nc4ccc(Cl)cc4)c3)n2)CC1 [L28, (E)-1-(4-chlorophenyl)-3-(3-(4-(4-methylpiperazin-1-yl)-6-(3-nitrostyrenyl)-1,3,5-triazinyl-2-amino)phenyl)urea] | 0 |
